Values after ≈ are worked out from the molar mass of the structure shown. Like-named read-outs stand apart in the source and are kept apart here.
Legend:
E. coli ATCC 25922 = assay: MIC, E. coli ATCC 25922; assay type: cell-based; conditions: for MIC: Escherichia coli, ATCC25922, E. coli
S. aureus ATCC 13709 = assay: MIC, S. aureus ATCC 13709 (Alamar Blue broth microdilution); assay type: cell-based; conditions: for MIC: Staphylococcus aureus, ATCC13709, S. aureus
[1] = E. coli, Alamar Blue read after overnight incubation at 35° C.
[2] = S. aureus, Alamar Blue read after overnight incubation at 35° C.
[3] = Alamar Blue read after overnight incubation at 35° C.

SMILES | MIC (E. coli ATCC 25922; [3]) [µg/mL] | MIC (S. aureus ATCC 13709; [3]) [µg/mL] | other results
CNc1cc(F)cc2c1[nH]c1nc(Oc3cnc(C)nc3)nc(N3CC(NC(=O)CNC(=O)C(N)CO)C4(CC4)C3)c12 (centres unmarked) [4.127] | – | – | MIC Ec (E. coli ATCC 25922; [1]): >16 µg/mL; MIC Sa (S. aureus ATCC 13709; [2]): 8 µg/mL (≈ 13.8 µM)
CNc1cccc2c1[nH]c1nc(Oc3cnc(N)nc3)nc(N3CC4C(N)C4C3)c12 (centres unmarked) [3.32] | 2 (≈ 4.96 µM) | ≤ 0.5 | –
CNc1cc(F)cc2c1[nH]c1nc(Oc3cnc(C4CC4)nc3)nc(N3CC4CCC3C4N)c12 (centres unmarked) [4.256] | ≤ 0.5 | ≤ 0.5 | –
CNc1cccc2c1[nH]c1nc(Sc3cncc(S(=O)(=O)NCCO)c3)nc(N3CC4C(N)C4C3)c12 (centres unmarked) [1.42] | 32 (≈ 60.8 µM) | 8 (≈ 15.2 µM) | –
CNc1cc(F)cc2c1[nH]c1nc(Oc3cnc(CO)nc3)nc(N3C[C@@H]4C[C@H]3C[C@@H]4N)c12 [4.391] | ≤ 0.5 | ≤ 0.5 | –
CNc1ncc(Oc2nc(N3CCC(N)C3)c3c(n2)[nH]c2c(NC)cc(F)cc23)cn1 (centres unmarked) [4.219] | – | – | MIC Ec (E. coli ATCC 25922; [1]): ≤0.5 µg/mL; MIC Sa (S. aureus ATCC 13709; [2]): ≤0.5 µg/mL
CNc1ccc(C)c2c1[nH]c1nc(Sc3cnc4cccnc4c3)nc(N3CC4C(N)C4C3)c12 (centres unmarked) [1.58] | 8 (≈ 17.1 µM) | ≤ 0.5 | –
CNc1cc(C(F)(F)F)cc2c1[nH]c1nc(Oc3cnc(C)nc3)nc(N3CC4C(N)C4C3)c12 (centres unmarked) [6.10] | – | – | MIC Ec (E. coli ATCC 25922): ≤0.5 µg/mL; MIC Sa (S. aureus ATCC 13709): ≤0.5 µg/mL
CNc1cccc2c1[nH]c1nc(Sc3cnc4ccc[n+]([O-])c4c3)nc(N3CC(O)C3)c12 [1.17] | > 64 | ≤ 0.5 | –
CNc1cccc2c1[nH]c1nc(Oc3cncc(C#N)c3)nc(N3CCN(CCN4CCOCC4)CC3)c12 [3.59] | > 64 | 4 (≈ 7.79 µM) | –
CNc1cc(F)cc2c1[nH]c1nc(Oc3cnc(N)nc3)nc(N3C[C@H]4CC3C[C@H]4N)c12 [4.191] | 2 (≈ 4.59 µM) | ≤ 0.5 | –
CNc1cc(F)cc2c1[nH]c1nc(Oc3cncc(C#N)c3)nc(N3CC(N)C4(CC4)C3)c12 (centres unmarked) [4.051] | 2 (≈ 4.5 µM) | ≤ 0.5 | –
CNc1cc(F)cc2c1[nH]c1nc(Oc3cnc(C)nc3)nc(N3CC4CNC(C4)C3)c12 (centres unmarked) [4.072] | 1 (≈ 2.3 µM) | ≤ 0.5 | –
CNc1cc(F)cc2c1[nH]c1nc(Oc3cnc(N)nc3)nc(N3CC4CC4(CN)C3)c12 (centres unmarked) [4.185] | 8 (≈ 18.4 µM) | ≤ 0.5 | –
CNc1cc(F)cc2c1[nH]c1nc(Oc3cnc4c(c3)OCCO4)nc(N3CC4CC(N)C4C3)c12 (centres unmarked) [4.294] | 1 (≈ 2.09 µM) | ≤ 0.5 | –
CNc1cc(F)cc2c1[nH]c1nc(Oc3cc(O)cc4oc(=O)cc(C)c34)nc(N3CC4CC(N)C4C3)c12 (centres unmarked) [4.383] | – | – | MIC Ec (E. coli ATCC 25922; [1]): >16 µg/mL; MIC Sa (S. aureus ATCC 13709; [2]): 4 µg/mL (≈ 7.74 µM)
CNc1cc(F)cc2c1[nH]c1nc(Oc3cnc(SC)nc3)nc(N3CC4CCNC4C3)c12 (centres unmarked) [4.198] | ≤ 0.5 | ≤ 0.5 | –
Cc1ncc(Oc2nc(N3C[C@H](N)C4(CC4)C3)c3c(n2)[nH]c2c(N(C)C(=O)[C@H](C)NC(=O)[C@H](C)N)cc(F)cc23)cn1 [4.425] | > 16 | > 16 | –
CNc1cc(F)cc2c1[nH]c1nc(Oc3cnc(C#N)c(C)c3)nc(N3CC4(CC[C@H]4N)C3)c12 [4.326] | ≤ 0.5 | ≤ 0.5 | –
CNc1cccc2c1[nH]c1nc(Sc3cnc4cccnc4c3)nc(N3CCN(C(C)=O)CC3)c12 [1.67] | > 64 | ≤ 0.5 | –
CNc1cc(F)cc2c1[nH]c1nc(Oc3cnc(C)nc3)nc(N3CC4CC3CC4N)c12 (centres unmarked) [4.128] | – | – | MIC Ec (E. coli ATCC 25922; [1]): 4 µg/mL (≈ 9.21 µM); MIC Sa (S. aureus ATCC 13709; [2]): ≤0.5 µg/mL
CNc1cc(F)cc2c1[nH]c1nc(Oc3cc(O)c4c(C)cc(=O)oc4c3)nc(N3CC4CC(N)C4C3)c12 (centres unmarked) [4.382] | – | – | MIC Ec (E. coli ATCC 25922; [1]): 16 µg/mL (≈ 31 µM); MIC Sa (S. aureus ATCC 13709; [2]): 1 µg/mL (≈ 1.94 µM)
CNc1cc(F)cc2c1[nH]c1nc(Oc3cnc(C)nc3)nc(N3CC[C@H](N)[C@@H](F)C3)c12 [4.144] | 1 (≈ 2.27 µM) | ≤ 0.5 | –

SMILES | MIC (E. coli ATCC 25922; [3]) [µg/mL] | MIC (S. aureus ATCC 13709; [3]) [µg/mL] | other results
CNc1cc(F)cc2c1[nH]c1nc(Oc3cnc(N4CC(S(=O)(=O)CC5CC5)C4)nc3)nc(N3C[C@H](N)C4(CC4)C3)c12 [4.338] | – | – | MIC Ec (E. coli ATCC 25922; [1]): 2 µg/mL (≈ 3.37 µM); MIC Sa (S. aureus ATCC 13709; [2]): ≤0.5 µg/mL
CNc1cccc2c1[nH]c1nc(Sc3cncnc3)nc(N3CC(N)C4(CC4)C3)c12 (centres unmarked) [1.44] | 2 (≈ 4.78 µM) | 1 (≈ 2.39 µM) | –
CNc1cc(Cl)cc2c1[nH]c1nc(Oc3cnc(C)nc3)nc(N3CC4CCCNC4C3)c12 (centres unmarked) [6.13] | – | – | MIC Ec (E. coli ATCC 25922): ≤0.5 µg/mL; MIC Sa (S. aureus ATCC 13709): ≤0.5 µg/mL
CNc1cc(F)cc2c1[nH]c1nc(Oc3ccc(C#N)nc3)nc(N3CC4CC(N)C4C3)c12 (centres unmarked) [4.332] | – | – | MIC Ec (E. coli ATCC 25922; [1]): ≤0.5 µg/mL; MIC Sa (S. aureus ATCC 13709; [2]): ≤0.5 µg/mL
CNc1cccc2c1[nH]c1nc(Oc3cnc(N)nc3)nc(Oc3cnc(N)nc3)c12 [3.53] | > 64 | 8 (≈ 19.2 µM) | –
CNc1cccc2c1[nH]c1nc(Oc3cncnc3)nc(N3CC4C(C3)C4NCC3CC3)c12 (centres unmarked) [3.13] | 1 (≈ 2.26 µM) | ≤ 0.5 | –
NC1C2CN(c3nc(Sc4cnc5ccc[n+]([O-])c5c4)nc4[nH]c5c(Cl)cccc5c34)CC12 (centres unmarked) [1.3] | > 64 | 32 (≈ 67.2 µM) | –
CNc1cc(F)cc2c1[nH]c1nc(Oc3ccc4cncnc4c3)nc(N3CC4[C@H](N)C[C@]4(C)C3)c12 (some centres unmarked) [4.366] | 1 (≈ 2.06 µM) | ≤ 0.5 | –
CNc1cc(F)cc2c1[nH]c1nc(Oc3cncnc3)nc(N3CC4CC4(N)C3)c12 (centres unmarked) [4.005] | ≤ 0.5 | ≤ 0.5 | –
CNc1cc(F)cc2c1[nH]c1nc(Oc3cnc(N4CC(C)(N)C4)nc3)nc(N3CC4C(N)C4C3)c12 (centres unmarked) [4.339] | – | – | MIC Ec (E. coli ATCC 25922; [1]): 1 µg/mL (≈ 2.04 µM); MIC Sa (S. aureus ATCC 13709; [2]): ≤0.5 µg/mL
Cc1ncc(Oc2nc(N3C[C@H](NC(=O)CN)C4(CC4)C3)c3c(n2)[nH]c2c(N(C)C(=O)CN)cc(F)cc23)cn1 [4.427] | > 16 | > 16 | –
CNc1cc(F)cc2c1[nH]c1nc(Oc3ccc(C(C)=O)nc3)nc(N3CC4CCNC4C3)c12 (centres unmarked) [4.309] | – | – | MIC Ec (E. coli ATCC 25922; [1]): ≤0.5 µg/mL; MIC Sa (S. aureus ATCC 13709; [2]): ≤0.5 µg/mL
CNc1cc(F)cc2c1[nH]c1nc(Oc3cnc(C)nc3)nc(N3CC(N)C4(CC4)C3)c12 (centres unmarked) [4.065] | – | – | MIC Ec (E. coli ATCC 25922; [1]): ≤0.5 µg/mL; MIC Sa (S. aureus ATCC 13709; [2]): ≤0.5 µg/mL
CNc1cc(F)cc2c1[nH]c1nc(Oc3cnc4cccnc4c3)nc(N3CC4C[C@@H](N)C[C@H]4C3)c12 (some centres unmarked) [4.046] | 1 (≈ 2.06 µM) | ≤ 0.5 | –
CNc1cc(F)cc2c1[nH]c1nc(Oc3cncnc3)nc(N3CC4CCC(N)C4C3)c12 (centres unmarked) [4.016] | 1 (≈ 2.3 µM) | ≤ 0.5 | –
Cc1ncc(Oc2nc(N3CC(N)C4(CC4)C3)c3c(n2)[nH]c2c(N)cc(F)cc23)cn1 (centres unmarked) [2.9] | – | – | MIC Ec (E. coli ATCC 25922; [1]): 16 µg/mL (≈ 38.1 µM); MIC Sa (S. aureus ATCC 13709; [2]): 16 µg/mL (≈ 38.1 µM)
CNc1cc(F)cc2c1[nH]c1nc(Oc3cncnc3)nc(N3CC4CNC(C4)C3)c12 (centres unmarked) [4.015] | 1 (≈ 2.38 µM) | ≤ 0.5 | –
CNc1cc(F)cc2c1[nH]c1nc(Oc3cnc(CO)nc3)nc(N3CC4(CC[C@H]4N)C3)c12 [4.388] | ≤ 0.5 | ≤ 0.5 | –
CNc1cc(F)cc2c1[nH]c1nc(Oc3cncnc3)nc(N3C[C@H](N)C4(CC4)C3)c12 [4.011] | ≤ 0.5 | ≤ 0.5 | –
CNc1cccc2c1[nH]c1nc(Sc3cnc4cccnc4c3)nc(N3CCC4(CCNCC4)C3)c12 [1.56] | 32 (≈ 64.4 µM) | 4 (≈ 8.05 µM) | –
CNc1cc(F)cc2c1[nH]c1nc(Oc3cnc(C)nc3)nc(N3CC(N4CC(N)C4)C3)c12 [4.158] | – | – | MIC Ec (E. coli ATCC 25922; [1]): 4 µg/mL (≈ 8.9 µM); MIC Sa (S. aureus ATCC 13709; [2]): ≤0.5 µg/mL
CNc1ncnc2c1[nH]c1nc(Oc3cncnc3)nc(Oc3cncnc3)c12 [7.10] | > 64 | > 64 | –
CNc1cc(F)cc2c1[nH]c1nc(Oc3cnc(C4CC4)nc3)nc(N3CC4C(N)C4C3)c12 (centres unmarked) [4.241] | – | – | MIC Ec (E. coli ATCC 25922; [1]): ≤0.5 µg/mL; MIC Sa (S. aureus ATCC 13709; [2]): ≤0.5 µg/mL

— patent publication US10858360B2, “Tricyclic gyrase inhibitors” (priority 2011, dated 2020)
